Experimental data as given in PMC12467487, “An In Vitro Study of Protein S-Glutathionylation by Members of the CLIC Protein Family” (Biomolecules, 2025).

Legend:
Experiment in all cases: tryptophan fluorescence quenching, glutathionylation of SQLWCLSN, AUC
Format in all cases: biochemical
rCLIC1 = molecular target: T1, rCLIC1 (Homo sapiens, UniProt O00299); settings: 5 mM GSSG, 100 uM peptide, McIlvaine's buffer pH 7, 0.1 uM enzyme; 1 h pre-incubation with 10 uM IAA-94
T1 construct: gene CLIC1; recombinant, soluble form; pET28a(+), ClearColi BL21(DE3); His-tag removed by thrombin; SEC

rCLIC4 = molecular target: T2, rCLIC4 (Homo sapiens, UniProt Q9Y696); settings: 5 mM GSSG, 100 uM peptide, McIlvaine's buffer pH 7, 0.1 uM enzyme; 1 h pre-incubation with 10 uM IAA-94
T2 construct: gene CLIC4; recombinant, soluble form; pET28a(+), ClearColi BL21(DE3); His-tag removed by thrombin; SEC
T2 sequence (Q9Y696 whole entry): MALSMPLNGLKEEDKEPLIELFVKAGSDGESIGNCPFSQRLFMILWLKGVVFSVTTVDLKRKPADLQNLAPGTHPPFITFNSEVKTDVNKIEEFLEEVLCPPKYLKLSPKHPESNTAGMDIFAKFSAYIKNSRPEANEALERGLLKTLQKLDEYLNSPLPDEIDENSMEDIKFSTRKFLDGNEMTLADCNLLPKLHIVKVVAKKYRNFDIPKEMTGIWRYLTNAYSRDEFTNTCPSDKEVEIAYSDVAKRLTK

rCLIC3 = molecular target: T3, rCLIC3 (Homo sapiens, UniProt O95833); settings: 5 mM GSSG, 100 uM peptide, McIlvaine's buffer pH 8, 0.1 uM enzyme; 1 h pre-incubation with 10 uM IAA-94
T3 construct: gene CLIC3; recombinant, soluble form; pET28a(+), E. coli BL21(DE3); His-tag removed by thrombin; SEC; endotoxin removed
T3 sequence (O95833 whole entry): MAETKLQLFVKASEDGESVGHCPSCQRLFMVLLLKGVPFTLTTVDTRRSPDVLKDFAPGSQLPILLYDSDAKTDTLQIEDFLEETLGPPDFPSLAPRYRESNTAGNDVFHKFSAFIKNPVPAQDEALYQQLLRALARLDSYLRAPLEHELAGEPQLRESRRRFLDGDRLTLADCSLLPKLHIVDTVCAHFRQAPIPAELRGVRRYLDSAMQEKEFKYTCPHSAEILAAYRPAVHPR

CC1(C2CCCC2)Cc2cc(OCC(=O)O)c(Cl)c(Cl)c2C1=O (stereo not drawn) [IAA-94]
fold decrease in glutathionylation activity at 10 uM (rCLIC1): 0.7 fold | fold decrease in glutathionylation activity at 10 uM (rCLIC4): 0.4 fold | fold reduction of glutathionylation activity at 10 uM (rCLIC3): 0.2 fold
